The text below walks through data of patent US8148070B2, “Genetic polymorphisms associated with coronary events and drug response, methods of detection and uses thereof” (Celera Corporation, priority 2007, dated 2012).

This experiment has as its system elderly men and women (ages 70-82). The experiment can be described thus: PROSPER trial: pravastatin vs placebo, coronary events in elderly by KIF6 719Arg carrier status. The experiment is classed as in vivo, human. The settings on record: for hazard ratio (coronary events, pravastatin vs placebo) / Hazard ratio: PROSPER; for hazard ratio (coronary events, pravastatin vs placebo): ages 70-82; for event (number of patients) / no event (number of patients): pravastatin arm of PROSPER; for Hazard ratio: pravastatin vs placebo, risk of CHD. The procedure: In this analysis, the KIF6 Trp719Arg polymorphism was analyzed in samples from the “Prospective Study of Pravastatin in the Elderly at Risk” (PROSPER) trial (PROSPER is described further in Shepherd et al., Lancet. 2002 Nov. 23; 360(9346):1623-30). PROSPER was both a secondary and primary trial of elderly men and women (ages 70-82). […] Since an interaction has been observed between KIF6 carrier status and prior vascular events, groups with and without prior vascular events were genotyped separately.
5752 patients were genotyped within the PROSPER trial, and Cox proportional hazards models were used to investigate (1) the risk for coronary events in 719Arg carriers compared with noncarriers in a placebo arm, and (2) the effect of statin therapy according to 719Arg carrier status in a pravastatin arm.
To assess the effect of pravastatin, risk estimates were used to compare the pravastatin arm with the placebo arm in subgroups defined by genotypes.

Where [1] appears, read: carrier (minor homozygote + heterozygote).

With `CC[C@H](C)C(=O)O[C@H]1C[C@H](O)C=C2C=C[C@H](C)[C@H](CC[C@@H](O)C[C@@H](O)CC(=O)O)[C@H]21` [Pravastatin, pravastatin], the “hazard ratio (coronary events, pravastatin vs placebo)” value by setting is: (719Arg carriers with prior vascular disease) 0.67; (noncarriers with prior vascular disease) 0.92. For the same compound, the “event (number of patients)” value reads like this: under setting [1], 103; (rs20455 genotype AA) 80; (rs20455 genotype AG) 85; (rs20455 genotype GG) 18. For the same compound, the “no event (number of patients)” value by setting is: under setting [1], 657; (rs20455 genotype AA) 456; (rs20455 genotype AG) 501; (rs20455 genotype GG) 156. Further, the Hazard ratio is 0.67 (KIF6 719Arg carrier, Model 1 unadjusted); 0.67 (KIF6 719Arg carrier, Model 2 adjusted for age, sex and smoking status); 0.67 (KIF6 719Arg carrier, Model 3 adjusted for age, sex, smoking status, history of hypertension, LDL, HDL and history of diabetes); 0.67 (KIF6 rs20455 heterozygote, Model 1 unadjusted); 0.67 (KIF6 rs20455 heterozygote, Model 2 adjusted for age, sex and smoking status); 0.68 (KIF6 rs20455 heterozygote, Model 3 adjusted for age, sex, smoking status, history of hypertension, LDL, HDL and history of diabetes). In addition, the Hazard ratio (KIF6 rs20455 major homozygote (noncarrier), Model 1 unadjusted) is reported as 0.93; the Hazard ratio (KIF6 rs20455 major homozygote (noncarrier), Model 2 adjusted for age, sex and smoking status) amounted to 0.92; the Hazard ratio (KIF6 rs20455 major homozygote (noncarrier), Model 3 adjusted for age, sex, smoking status, history of hypertension, LDL, HDL and history of diabetes) was found to be 0.92; the Hazard ratio (KIF6 rs20455 minor homozygote, Model 1 unadjusted) came to 0.65; the Hazard ratio (KIF6 rs20455 minor homozygote, Model 2 adjusted for age, sex and smoking status) stood at 0.65; the Hazard ratio (KIF6 rs20455 minor homozygote, Model 3 adjusted for age, sex, smoking status, history of hypertension, LDL, HDL and history of diabetes) was 0.63.
